The target of test [1] is Histone deacetylase 1 (Homo sapiens, UniProt Q13547).
Description: Inhibition of C-terminal 6His-FLAG-tagged human recombinant HDAC1 (1 to 482 residues) expressed in Sf9 cells using Ac-peptide as substrate preincubated for 15 mins followed by substrate addition and measured after 1 hr by plate reader analysis
The target of test [2] is Phosphatidylinositol 4,5-bisphosphate 3-kinase catalytic subunit alpha isoform (Homo sapiens, UniProt P42336).
Description: Inhibition of PI3Kalpha (unknown origin) using PIP2 as substrate incubated for 1 hr in presence of ATP by ADP-Glo assay
Test [3] relates to MV4-11. Briefly: Antiproliferative activity against human MV4-11 cells assessed as reduction in cell viability incubated for 72 hrs by CCK-8 assay. The format is functional, cell-based. Conditions: MV4-11, 72 h. In general terms: Tetrazolium dyes change colour on reduction, which living cells bring about.
Test [4] can be described thus: Antiproliferative activity against human MINO cells assessed as reduction in cell viability incubated for 72 hrs by CCK-8 assay.
In test [5] the test system is Friend leukemia cell line. Briefly: Antiproliferative activity against mouse Friend leukemia cell line assessed as reduction in cell viability incubated for 72 hrs by CCK-8 assay. The format is functional, cell-based.
In test [6] the test system is Ramos. In words: Antiproliferative activity against human Ramos cells assessed as reduction in cell viability incubated for 72 hrs by CCK-8 assay.
Test [7] concerns HL-60. Briefly: Antiproliferative activity against human HL-60 cells assessed as reduction in cell viability incubated for 72 hrs by CCK-8 assay. Type of test: functional, cell-based. Conditions: HL-60, 72 h.
Test [8] has as its system BaF3. Briefly: Antiproliferative activity against mouse BaF3 cells assessed as reduction in cell viability incubated for 72 hrs by CCK-8 assay. The format is functional, cell-based. Conditions: BaF3, 72 h.
Test [9] concerns Raji. Briefly: Antiproliferative activity against human Raji cells assessed as reduction in cell viability incubated for 72 hrs by CCK-8 assay. The format is functional, cell-based.
The subject of test [10] is DOHH-2. In words: Antiproliferative activity against human DOHH-2 cells assessed as reduction in cell viability incubated for 72 hrs by CCK-8 assay. Type of test: functional, cell-based. Conditions: DOHH-2, 72 h.
The test system of test [11] is L1210. In words: Antiproliferative activity against mouse L1210 cells assessed as reduction in cell viability incubated for 72 hrs by CCK-8 assay. Type of test: functional, cell-based. Conditions: L1210, 72 h.
Test [12] deals with NB-4. In words: Antiproliferative activity against human NB4 cells assessed as reduction in cell viability incubated for 72 hrs by CCK-8 assay. The format is functional, cell-based. Conditions: NB-4, 72 h.
In test [13] the test system is EL4. In words: Antiproliferative activity against mouse EL4 cells assessed as reduction in cell viability incubated for 72 hrs by CCK-8 assay. Type of test: functional, cell-based. Conditions: EL4, 72 h.

Sequence of Histone deacetylase 1 (Q13547 whole entry, canonical isoform): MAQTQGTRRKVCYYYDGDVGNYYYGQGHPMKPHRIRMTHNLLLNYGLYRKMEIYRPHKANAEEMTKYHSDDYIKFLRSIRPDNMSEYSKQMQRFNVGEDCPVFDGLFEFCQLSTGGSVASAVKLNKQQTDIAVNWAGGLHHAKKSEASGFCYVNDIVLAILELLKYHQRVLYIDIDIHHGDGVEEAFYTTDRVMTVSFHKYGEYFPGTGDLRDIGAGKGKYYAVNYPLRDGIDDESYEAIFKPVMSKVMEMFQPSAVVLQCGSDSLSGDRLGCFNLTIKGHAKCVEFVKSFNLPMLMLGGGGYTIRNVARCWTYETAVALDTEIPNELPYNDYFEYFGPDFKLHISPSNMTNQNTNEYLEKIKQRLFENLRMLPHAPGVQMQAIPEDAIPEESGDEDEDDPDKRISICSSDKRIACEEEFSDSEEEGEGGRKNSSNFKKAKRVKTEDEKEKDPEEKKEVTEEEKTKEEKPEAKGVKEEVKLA
Sequence of Phosphatidylinositol 4,5-bisphosphate 3-kinase catalytic subunit alpha isoform (P42336 whole entry, canonical isoform): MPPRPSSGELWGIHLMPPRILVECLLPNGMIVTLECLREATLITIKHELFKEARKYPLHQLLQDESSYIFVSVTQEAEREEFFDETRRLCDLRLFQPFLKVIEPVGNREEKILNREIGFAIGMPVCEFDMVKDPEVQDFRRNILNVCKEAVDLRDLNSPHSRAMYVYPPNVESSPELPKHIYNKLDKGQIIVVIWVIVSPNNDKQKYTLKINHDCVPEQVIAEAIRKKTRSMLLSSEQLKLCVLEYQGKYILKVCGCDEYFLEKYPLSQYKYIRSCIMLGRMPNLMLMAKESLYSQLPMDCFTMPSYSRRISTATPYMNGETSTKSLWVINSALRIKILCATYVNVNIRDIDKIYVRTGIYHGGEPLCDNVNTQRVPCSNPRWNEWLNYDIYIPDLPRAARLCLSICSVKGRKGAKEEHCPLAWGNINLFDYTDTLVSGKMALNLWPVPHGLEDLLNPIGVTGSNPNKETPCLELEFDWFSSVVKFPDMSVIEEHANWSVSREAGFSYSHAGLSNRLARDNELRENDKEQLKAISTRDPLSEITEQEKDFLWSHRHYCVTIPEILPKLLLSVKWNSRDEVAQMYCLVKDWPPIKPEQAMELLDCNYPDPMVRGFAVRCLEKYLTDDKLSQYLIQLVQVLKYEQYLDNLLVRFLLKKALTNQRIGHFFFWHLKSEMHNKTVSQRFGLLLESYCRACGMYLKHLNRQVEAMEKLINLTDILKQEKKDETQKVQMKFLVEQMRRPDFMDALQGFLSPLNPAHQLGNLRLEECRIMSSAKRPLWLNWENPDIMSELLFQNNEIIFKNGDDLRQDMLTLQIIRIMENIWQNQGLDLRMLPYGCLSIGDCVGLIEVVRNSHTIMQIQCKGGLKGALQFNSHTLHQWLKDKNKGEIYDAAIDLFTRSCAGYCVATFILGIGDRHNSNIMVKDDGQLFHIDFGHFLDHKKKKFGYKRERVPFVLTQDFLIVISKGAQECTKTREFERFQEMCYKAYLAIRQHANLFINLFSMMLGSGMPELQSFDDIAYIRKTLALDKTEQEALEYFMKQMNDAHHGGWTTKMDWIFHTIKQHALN

For the compound `COc1ncc(-c2cc(OCCOc3ccc(C(=O)Nc4ccccc4N)cc3)c3ncnc(C)c3c2)cc1NS(=O)(=O)c1ccc(F)cc1F`, the IC50 (in general, the concentration at which inhibition is half-maximal) was 0.056 µM in test [1], 0.00058 µM in test [2] and 0.41 µM in [3].

As for `Nc1cc(C(F)(F)F)c(-c2cc(N3CCOCC3)nc(N3CCOCC3)n2)cn1` [BUPARLISIB], the IC50 worked out at 1.5 µM in test [4]; 0.81 µM in [5]; 5.4 µM in test [6]; 1.2 µM in test [7]; 0.56 µM in [3]; 4.8 µM in test [8]. Also, the IC50 in test [9] was 0.99 µM; in test [10], 1.4 µM; in test [11], 0.37 µM; in test [12], 0.75 µM; in [13] it was 0.86 µM.

On to `COc1ncc(-c2cc(OCCCCC(=O)Nc3ccccc3N)c3ncnc(C)c3c2)cc1NS(=O)(=O)c1ccc(F)cc1F`, for which the IC50 in test [1] turned out to be 3.56 µM; in test [2], 0.0002 µM; in test [3] it was 0.02 µM.

`COc1ncc(-c2cc(OCCCCCCCC(=O)Nc3ccccc3N)c3ncnc(C)c3c2)cc1NS(=O)(=O)c1ccc(F)cc1F`: the IC50 turned out to be 0.525 µM in test [1], 0.00028 µM in test [2] and 0.02 µM in test [3].

Take `COc1ncc(-c2cc(OCCCOc3ccc(C(=O)Nc4ccccc4N)cc3)c3ncnc(C)c3c2)cc1NS(=O)(=O)c1ccc(F)cc1F`: the IC50 in test [1] was 0.095 µM; in [2] it was 0.00039 µM; in test [3], 0.39 µM.

For the compound `COc1ncc(-c2cc(OCCCCCC(=O)Nc3ccccc3N)c3ncnc(C)c3c2)cc1NS(=O)(=O)c1ccc(F)cc1F`, the IC50 turned out to be 1.31 µM in test [1], 0.00021 µM in [2] and 0.01 µM in [3].

For the compound `Nc1ccc(F)cc1NC(=O)c1ccc(CNC(=O)/C=C/c2cccnc2)cc1`, the half-inhibitory concentration (IC50) was 2.1 µM in [4]; 0.5 µM in test [5]; more than 10 µM in test [6]; 1.3 µM in [7]; 0.32 µM in test [3]; 1.5 µM in [8]. Moreover, the IC50 in [9] is 6.9 µM; in test [10], 4.3 µM; in test [11] it was more than 10 µM; in test [12], 1.9 µM; in test [13], 5.2 µM.

On to `COc1ncc(-c2cc(OCCCCCCC(=O)NO)c3ncnc(C)c3c2)cc1F`, for which the IC50 in [3] amounted to 0.25 µM.

As to `O=C(CCCCCCC(=O)Nc1ccccc1)NO` [VORINOSTAT], the IC50 in test [8] came out at 0.8 µM.

Turning to `COc1ncc(-c2cc(OCCCC(=O)Nc3ccccc3N)c3ncnc(C)c3c2)cc1NS(=O)(=O)c1ccc(F)cc1F`, the IC50 in test [1] stood at 4.71 µM; in [2] it was 0.00023 µM; in test [3] it was 0.03 µM.

As for `COc1ncc(-c2cc(OCCCCCCCCCC(=O)Nc3ccccc3N)c3ncnc(C)c3c2)cc1NS(=O)(=O)c1ccc(F)cc1F`, the IC50 amounted to 3.03 µM in [1], 0.0004 µM in test [2] and 0.06 µM in test [3].

For the compound `COc1ncc(-c2cc(OCCCCCCCCC(=O)Nc3ccccc3N)c3ncnc(C)c3c2)cc1NS(=O)(=O)c1ccc(F)cc1F`, the half-inhibitory concentration (IC50) in test [1] was 0.253 µM; in test [2], 0.00039 µM; in [3], 0.01 µM.

The record behind these values is ChEMBL document CHEMBL5537133, “Rational design and optimization of novel 4-methyl quinazoline derivatives as PI3K/HDAC dual inhibitors with benzamide as zinc binding moiety for the treatment of acute myeloid leukemia” (Eur J Med Chem, 2024).
